Experimental data: patent publication US7288273B1, “Gallotannins and ellagitannins as regulators of cytokine release” (The Penn State Research Foundation, priority 2000, dated 2007)

Tests used:
sarcoma-180 tumors = conditions: mice infected with sarcoma-180 tumors; cited from earlier work
[1] = tested on: TNF-α secretion from h-PBMC's; assay: TNF-α release from h-PBMC's, ELISA; type: cell-based, human; conditions: for TNF-α secreted in the presence of 17c-21c: 24 hours, ± SD
Procedure: (§1) Authentic samples of agrimoniin and coriariin A were supplied by Professor Yoshida (Okayama University, Japan). Dimeric gallotannin (analog of coriariin A) and β-D-PGG were synthesized as described. LPS (E. coli 055:B5 phenol extract, MW range 50-100 KD). Ficoll-Histopaque (ρ=1.077 g/mL), Fetal Bovine Serum, sterile, hybridoma tested (FCS), gentamicin 10 mg/mL. L-glutamine, 200 mM. Dextran B-512 Leuconostoc Av M.W. 580000, and Trypan Blue stain were purchased from Sigma. Hanks Buffer Saline Solution 1×, with phenol red, mediatech (HBSS) and RPMI 1640 1×, mediatech were purchased from Fisher Scientific, Human IL-1β and TNF-α Enzyme Linked ImmunoSorbent Assay (ELISA) kits were purchased from R and D Systems, Minneapolis, Minn. Fresh heparinized blood was obtained from health human subjects (ages 20-34).
(§2) Dose-Response Data: General Procedure. H-PBMC's were isolated by reported procedures (10. 18). The cells counted and the viability was determined by Trypan Blue exclusion (typically, viability exceeded 95%). The concentration of the cells in the 0.5 mL wells was adjusted to 1×10^6 cells/well by diluting with the required amount of RPMI.
(§3) The appropriate amount of a tannin (or LPS) stock solution in HBSS was added to each well to furnish the concentration values reported in the Figures. […] The culture plates were incubated in a 5% CO2, 37° C. humidified incubator for the indicated time. At the end of the time interval, 450 μL of the culture supernatant from each well was harvested, after centrifugation at 400 g, 25° C., 10 min. with brake, and stored at −78° C. pending ELISA analysis for the cytokine(s). The ELISA assays were conducted per the manufacturer's instructions using standard calibration curves to calculate cytokine concentration from observed absorbance readings. The cytokine values reported are averages of three runs±SE.
(§4) The dimeric antitumor ellagitannins coriariin A and agrimoniin, the monomeric gallotannin β-D-pentagalloylglucose (β-D-PGG) and the dimeric gallotannin of this invention were all examined in this study. The dimeric gallotannin is an analog of coriariin A and is identical to the parent ellagitannin except that the galloyl rings at O(4) and O(6) are not joined in a hexahydroxydiphenoyl (HHDP) linkage. h-PBMC's were incubated with the compound under investigation for the indicated length of time and the amounts of both IL-1β and, independently, TNF-α, present in the culture supernatants was determined using commercially available ELISA kits. In each case, LPS was used as a positive control while untreated cells were reserved as negative controls.
In the first study, the induction of TNF-α secretion from h-PBMC's in the presence of each compound 17c-21c was measured. The h-PBMC's were incubated with each compound for 24 hours. The TNF-α levels in the cell culture supernatant were assayed by Enzyme Linked ImmunoSorbant Assay (ELISA). The data point for each assay represent the mean of triplicate measurements. […] (See FIG. 11).

[2] = tested on: IL-1β secretion from h-PBMC's; assay: IL-1β release from h-PBMC's, ELISA; type: cell-based, human; conditions: h-PBMC's 2nd subject, ± SD
Procedure: as §1, §2, §3, §4
In the third study, compounds 17c-20c were examined for their ability to induce secretion of IL-1β from h-PBMC's (FIG. 16). Recall from the introduction that the cytokine IL-1β is also released in an LPS-stimulated septic shock response. The compounds that cause very little secretion of IL-1β or none at all will be the optimal compounds for potential septic shock therapeutics because they will be less likely themselves to induce a septic shock response.

[3] = tested on: LPS induced TNF-α secretion from h-PBMC's; assay: Inhibition of LPS induced TNF-α secretion from h-PBMC's; type: cell-based, human; conditions: LPS 5 μg/mL; for TNF-α secreted in the presence of LPS and 17c-20c: compound 10 μg/mL added after 45 minutes, h-PBMC's 3rd subject, ± SD
Procedure: In the second study, the ability of compounds 17c-20c to inhibit LPS induced TNF-α production in h-PBMC's was investigated using four assays. The first experiment was a kinetics run in which the h-PBMC's were initially incubated with a fixed concentration of LPS (5 μg/mL) for 45 minutes. This incubation period was followed by addition of a fixed concentration (10 μg/mL) of compounds 17c-20c. The cells were harvested at varying intervals of time. […] The optimal time was determined by comparing the amount of TNF-α secreted by LPS alone to the amount of TNF-α secreted by LPS and substrate at each time point.
The second assay determined the minimum amount of substrate required for inhibition. LPS (10 μg/mL) was incubated with h-PBMC's for 45 minutes followed by addition of 17c-20c at varying concentrations. The cell culture supernatant was harvested after 8 hours. The inherent variability in using cells from different subjects, or in the day of assay, made it difficult to compare overall effectiveness of inhibitors. Therefore, to more easily identify the concentration at which maximum inhibition occurs for a given compound, the TNF-α secretion was normalized by calculating a percent of maximum secretion value (based on LPS alone) (FIG. 13). […] The optimal concentration for inhibition varied between substrates, but the general dose response trend was the same. Overall, the maximum inhibition was 45% for 18c and 20c, and 25% for 19c.
The third assay investigated the ability of 17c, 18c, and 20c to inhibit LPS induced TNF-α secretion using a smaller dosage of LPS (5 μg/mL) (FIG. 14). Again, the response was dose dependent. The maximum inhibition was 45% for 17c and 20c, and 35% for 18c.
In the fourth assay the varying concentrations of substrates 17c-20c and LPS were added at the same time to determine the effect of addition sequence on the inhibition of TNF-α secretion (FIG. 15). The addition time seemed to make a difference in the overall dose response trend. However, maximum inhibition was the same as when the compounds were added 45 minutes after LPS addition (about 40% for each compound).
Finally, in the last study, analogs 19c and 20c were again tested for inhibition LPS induced TNF-α secretion (FIG. 17). In this assay a smaller dose of LPS was used to determine if inhibition was greater when much lower doses of LPS were present. The substrates were added 45 minutes after LPS addition and the cells were harvested after 8 hours. It doesn't appear as though the substrates are better inhibitors when smaller amounts of LPS are used, again perhaps reflecting receptor saturation with LPS at this dosage.

## O=C(O[C@H]1[C@@H]2OC(=O)c3cc(O)c(O)c(O)c3-c3c(cc(O)c(O)c3O)C(=O)OC[C@H]2OC(O)[C@@H]1OC(=O)c1cc(O)c(O)c(O)c1)c1cc(O)c(O)c(O)c1 (stereo partly drawn) [tellimagrandin I]
sarcoma-180 tumors
  antitumor effect, in words: much less effective antitumor agents

## 1,1′-2,2′,3,3′,4,4′,6,6′-Tetrakis(3,4,5-trihyroxybenzoyl)-β,β′-D,D′-glucopyranosyl-(2,3′-oxy-di-benzoate) [Compound 21c]
[1]
  TNF-α secretion from h-PBMC's, in words: significant amount of TNF-α secretion
[1]; compound 0.6 μM
  TNF-α secreted in the presence of 17c-21c: 140.7 ± 50.1 pg/mL
[1]; compound 2.8 μM
  TNF-α secreted in the presence of 17c-21c: 80.3 ± 38.1 pg/mL
[1]; compound 5.6 μM
  TNF-α secreted in the presence of 17c-21c: 61.9 ± 11.7 pg/mL
[1]; compound 11.2 μM
  TNF-α secreted in the presence of 17c-21c: 96.2 ± 8.9 pg/mL
[1]; compound 16.8 μM
  TNF-α secreted in the presence of 17c-21c: 379.3 ± 156.6 pg/mL
[1]; compound 22.3 μM
  TNF-α secreted in the presence of 17c-21c: 618.0 ± 182.0 pg/mL
[1]; compound 27.9 μM
  TNF-α secreted in the presence of 17c-21c: 899.0 ± 368.4 pg/mL

## O=C(OC[C@H]1O[C@@H](OC(=O)c2ccc(C(=O)O[C@@H]3O[C@H](COC(=O)c4cc(O)c(O)c(O)c4)[C@@H](OC(=O)c4cc(O)c(O)c(O)c4)[C@H](OC(=O)c4cc(O)c(O)c(O)c4)[C@H]3OC(=O)c3cc(O)c(O)c(O)c3)cc2)[C@H](OC(=O)c2cc(O)c(O)c(O)c2)[C@@H](OC(=O)c2cc(O)c(O)c(O)c2)[C@@H]1OC(=O)c1cc(O)c(O)c(O)c1)c1cc(O)c(O)c(O)c1 [Compound 17c, 1,1′-O-2,2′,3,3′,4,4′,6,6′-Tetrakis(3,4,5-trihydroxybenzoyl)-β,β′-D,D′-glucopyranosylterephthalate]
[2]; compound 0.6 μM
  IL-1β secreted in the presence of 17c-20c: 0 pg/mL
[2]; compound 2.9 μM
  IL-1β secreted in the presence of 17c-20c: 0 pg/mL
[2]; compound 5.9 μM
  IL-1β secreted in the presence of 17c-20c: 3.2 ± 3.6 pg/mL
[2]; compound 11.8 μM
  IL-1β secreted in the presence of 17c-20c: 329.7 ± 443.0 pg/mL
[2]; compound 17.6 μM
  IL-1β secreted in the presence of 17c-20c: 140.5 ± 195.6 pg/mL
[2]; compound 23.5 μM
  IL-1β secreted in the presence of 17c-20c: 630.6 ± 283.1 pg/mL
[2]; compound 29.4 μM
  IL-1β secreted in the presence of 17c-20c: 690.1 ± 101.0 pg/mL
[1]; compound 0.6 μM
  TNF-α secreted in the presence of 17c-21c: 0 pg/mL
[1]; compound 2.9 μM
  TNF-α secreted in the presence of 17c-21c: 0 pg/mL
[1]; compound 5.9 μM
  TNF-α secreted in the presence of 17c-21c: 0 pg/mL
[1]; compound 11.8 μM
  TNF-α secreted in the presence of 17c-21c: 0.26 ± 0.37 pg/mL
[1]; compound 17.6 μM
  TNF-α secreted in the presence of 17c-21c: 0 pg/mL
[1]; compound 23.5 μM
  TNF-α secreted in the presence of 17c-21c: 0.26 ± 0.37 pg/mL
[1]; compound 29.4 μM
  TNF-α secreted in the presence of 17c-21c: 2.5 ± 3.5 pg/mL
[3]; time 1 h
  TNF-α secreted in the presence of LPS and 17c-20c: 511.2 ± 288.3 pg/mL
[3]; time 4 h
  TNF-α secreted in the presence of LPS and 17c-20c: 1896.3 ± 140.9 pg/mL
[3]; time 8 h
  TNF-α secreted in the presence of LPS and 17c-20c: 2477.0 ± 148.2 pg/mL
[3]; time 12 h
  TNF-α secreted in the presence of LPS and 17c-20c: 2574.4 ± 459.9 pg/mL
[3]; time 16 h
  TNF-α secreted in the presence of LPS and 17c-20c: 1811.6 ± 352.9 pg/mL
[3]; time 24 h
  TNF-α secreted in the presence of LPS and 17c-20c: 2266.1 ± 353.3 pg/mL
[3]; 3rd subject
  maximum inhibition of LPS induced TNF-α secretion: 45%

## gemin A
sarcoma-180 tumors
  antitumor effect, in words: induce tumor regression

## O=C1OC[C@H]2OC(O)[C@@H]3OC(=O)c4cc(O)c(O)c(O)c4-c4c(cc(O)c(O)c4O)C(=O)O[C@H]3[C@@H]2OC(=O)c2cc(O)c(O)c(O)c2-c2c1cc(O)c(O)c2O (stereo partly drawn) [pedunculagin]
sarcoma-180 tumors
  antitumor effect, in words: much less effective antitumor agents

## O=C(OC1O[C@@H]2COC(=O)c3cc(O)c(O)c(O)c3-c3c(cc(O)c(O)c3O)C(=O)O[C@H]2[C@H](OC(=O)c2cc(O)c(O)c(O)c2)[C@H]1OC(=O)c1cc(O)c(O)c(O)c1)c1cc(O)c(O)c(O)c1 (stereo partly drawn) [Compound 2, tellimagrandin II]
sarcoma-180 tumors
  antitumor effect, in words: much less effective antitumor agents
